Test results reported in US20250333442A1, “NOVEL CELL-PERMEABLE PEPTIDE AND USE THEREOF” (AJOU UNIVERSITY INDUSTRY-ACADEMIC COOPERATION FOUNDATION, priority 2021, published 2025).

Tests used:
peritoneal macrophages = assay: Peritoneal macrophage permeability by confocal microscopy; assay type: cell-based; conditions: 1 μg/mL fluorescent-labeled peptide, ICR mouse peritoneal macrophages, culture times 1, 4 and 24 hours
Method: To determine the cell permeability of F1 peptides, 1 μg/mL of fluorescent-labeled F1 and F2 peptides was treated to cultures of peritoneal macrophages isolated from 4-week-old ICR mice, followed by culture for 24 hours. Afterwards, intracellular fluorescence expression over culture times (1, 4 and 24 hours) was observed by confocal microscopy.

lymph node cells = assay: Cell permeability via flow cytometry, lymph node cells; assay type: cell-based, mouse; conditions: for positive cell frequency (of entire cells): 1 μg/mL
Method: (§1) To determine whether the F1 peptide has entered the cell by penetrating the plasma membrane, splenocytes and lymph node cells were isolated from 4-week-old ICR mice, cultured for 1 hour, treated with 1 μg/mL of fluorescent-labeled F1 and F2 peptides, respectively, and then cultured for 48 hours. Flow cytometry was then used to analyze a frequency of fluorescent-labeled cells over culture time (1, 4, 24, and 48 hours) to determine the frequency of cells into which the peptide moved.

skin (epidermis) tissues = assay: Skin tissue permeability by confocal microscopy; assay type: in vivo, mouse; conditions: for fluorescence expression in tissues: 1 μg/mL applied to mouse leg skin with cotton swab, cryosection; for difference in fluorescence expression with or without scratches: normal versus needle-scratched skin, 1 μg/mL, 1˜2 hours
Method: To identify the skin tissue permeability of the F1 peptide, the left leg of 4-week-old ICR mice was left unscratched, and the right leg was scratched with a needle. Afterwards, 1 μg/mL of fluorescent-labeled F1 and F2 peptides was applied to both legs with cotton swabs respectively, and after 1˜2 hours, skin (epidermis) tissues were collected, cryosectioned, and observed under confocal microscopy.

splenocytes [1] = assay: Splenocyte permeability by confocal microscopy; assay type: cell-based; conditions: 1 μg/mL fluorescent-labeled peptide, ICR mouse splenocytes, culture times 1, 4 and 24 hours
Method: To determine the cell permeability of F1 peptides, 1 μg/mL of fluorescent-labeled F1 and F2 peptides were treated to cultures of splenocytes isolated from 4-week-old ICR mice, followed by culture for 24 hours. Afterwards, intracellular fluorescence expression over culture times (1, 4 and 24 hours) was observed by confocal microscopy. The untreated group with no peptide treatment involved was used as a control, alongside with a GFP peptide ([…]) treated group without cell permeability and a scramble D treated group (negative control).

splenocytes [2] = assay: Cell permeability via flow cytometry, splenocytes; assay type: cell-based, mouse; conditions: culture times 1, 4, 24 and 48 hours
Method: as §1

splenocytes [3] = assay: Cell permeability of peptides with SEQ ID NOS: 22 to 30 via flow cytometry; assay type: cell-based, mouse; conditions: splenocytes of 8-week-old ICR mice, 1 μg/mL, 24 and 48 hours
Method: To determine whether the F1 peptide enables penetration into cells even if a peptide without cell permeability is linked in the middle of any amino acid sequence, splenocytes were isolated from ICR 8-week-old mice and cultured for 1 hour. Afterwards, 1 μg/mL of fluorescent-labeled peptides (SEQ ID NOS: 22 to 30) was treated to cells respectively, followed by culture for 48 hours. Afterwards, flow cytometry was used to analyze the frequency of fluorescent-labeled cells over the culture time (24 and 48 hours) to determine the frequency of cells into which the peptide moved. […] A total of 4 mice were used, with the number of mice per experimental group (Group) set to 2 and the experiment repeated twice.

[4] = tissue collected after 1˜2 hours, confocal microscopy

Row | Substance | intracellular fluorescence expression (peritoneal macrophages) | fluorescence expression in tissues (skin (epidermis) tissues; [4]) | difference in fluorescence expression with or without scratches (skin (epidermis) tissues) | intracellular fluorescence expression (splenocytes [1]) | other results
1 | GCDDDDDDDDCGEIV [Peptide F2] | showed fluorescence expression in peritoneal macrophages | showed fluorescence expression in tissues | no significant difference | showed fluorescence expression in splenocytes | positive cell frequency (of entire cells) (lymph node cells; over 48 hours): about 60%; fluorescence expression in hair follicles (skin (epidermis) tissues; 1 μg/mL applied to mouse leg skin, tissue collected after 1˜2 hours, confocal microscopy): strong fluorescence expression especially in hair follicles
2 | HKFSVSGEGEGDATC [GFP peptide, GFP peptide without cell permeability, used as control, reference compound] | – | – | – | – | intracellular fluorescence expression (splenocytes [2]): intracellular fluorescence expression was not observed; intracellular fluorescence expression (lymph node cells; culture times 1, 4, 24 and 48 hours): intracellular fluorescence expression was not observed
3 | GCCGEIV [Peptide F1] | showed fluorescence expression in peritoneal macrophages | showed fluorescence expression in tissues | no significant difference | showed fluorescence expression in splenocytes | positive cell frequency (of entire cells) (lymph node cells; over 4 hours): about 40%
4 | GCCGEIVDDDDDDDD [Peptide F1D8] | – | – | – | – | degree of penetration of the D peptide into the cell compared with R8D control (splenocytes [3]): superior to that of the R8 peptide; penetration of the DDDDDDDD peptide inside the cell compared with cTATD control (splenocytes [3]): at a level similar to that of the cTAT peptide
